Converted amounts (≈) assume the structure as drawn. Read-outs that look alike come from different tables or passages of the source.
How the values were obtained:
[1] = Solubility of DHEA in ethanol and MCT oil; type: physicochemical
From the text: An alcohol-soluble species is a species that is insoluble in water and has a greater solubility in ethanol than in medium chain triglyceride (MCT) oils. […] Alcohol-soluble species are preferably pharmacologically active, more preferably are a drug or a supplement, and neither include nor are water. Thus, liquids and solids may exist that technically are soluble in alcohol, but because they also are soluble in water or more or equivalently soluble in MCT oils than in ethanol are not “alcohol-soluble species”.
Solubilized means that the alcohol-soluble species to be delivered is in the solution of the droplet. […] Thus, if either average particle diameters greater than 200 nm or precipitated crystals visible to the naked eye form, the alcohol-soluble species is not solubilized in the solution of the droplet. If an alcohol-soluble species is not solubilized in the solution, it is insoluble in the solution. In many respects, solubility may be thought of as a concentration dependent continuum. For example, the following descriptive terms may be used to express solubility of a solute in a solvent (grams solid/mL of solvent) at 25 degrees Celsius: […]

[2] = system: peri- and postmenopausal subjects; assay: Combination therapy of MOIW microemulsion with progesterone, menopausal symptoms; type: in vivo, human; details: most perimenopausal subjects, administered daily in combination with MOIW microemulsion
Procedure: Dosing for this combination therapy includes use of the present MOIW microemulsion as previously described with the addition of progesterone. For use in the alleviation of menopausal symptoms, from 5 mg to 18 mg of progesterone is preferably administered daily, with 8 mg to 16 mg of progesterone providing a therapeutically effective dose for postmenopausal subjects and with 8 mg to 10 mg of progesterone providing a therapeutically effective dose for perimenopausal subjects. A therapeutically effective dose for most perimenopausal subjects was determined to be approximately 8 mg.
A preferred dosing for this combination therapy includes intra-oral administration of the MOIW microemulsion ante meridiem with topical administration of the thickened MOIW post meridiem. For perimenopausal subjects using intermittent dosing of the MOIW microemulsion, the same intermittent dosing is also preferred for the thickened MOIW microemulsion progesterone topical.

C[C@]12CC[C@H](O)CC1=CC[C@@H]1[C@@H]2CC[C@]2(C)C(=O)CC[C@@H]12 [DHEA, dehydroepiandrosterone (3-beta-hydroxyandrosteron-5-en-17-one)]
solubility ([1]; ethanol, organic solvent or mixture, read-out: solubility in ethanol): ~150 mg/mL (≈ 520 mM)
solubility ([1]; medium chain triglyceride (MCT) oil, oil or lipid, MCT oil, read-out: solubility in MCT oil): ~10 mg/mL (≈ 34.7 mM)

CC(=O)[C@H]1CC[C@H]2[C@@H]3CCC4=CC(=O)CC[C@]4(C)[C@H]3CC[C@]12C [progesterone]
therapeutically effective dose of progesterone [2]: approximately 8 mg
